{
  "source": "patent US6238689A",
  "about": "“Intestinal absorption of nicotine to treat nicotine responsive conditions” (Mayo Foundation for Medical Education and Research, priority 1998, dated 2001)",
  "key": {"[1]": {"conditions": "statement without test; cited from earlier work"}, "[2]": {"assay": "Side effects after nicotine/Carbopol enema in healthy volunteers and patients with active UC (Example 6)", "type": "in vivo, human", "description": "Eight normal healthy volunteers and 8 patients with active UC were enrolled in this open label, single dose study.\nThe nicotine content of sample enemas was first confirmed by diluting a small volume of the contents in dilute hydrochloric acid to produce an approximate concentration of 30 ng/ml, which could then be accurately measured by our assay.\nSide-effect experienced by the subjects were recorded as absent, mild, moderate or severe. Subjects were asked to report the time, nature and severity of any symptoms, at the commencement and each hour through the study, and were questioned particularly about nausea, vomiting, light-headedness, tremor, palpitations and headache. Blood pressure and pulse rate were also recorded each hour and when any symptoms occurred."}, "[3]": {"conditions": "oral, 45 micrograms nicotine base/kg, previous study (Benowitz et al.); cited from earlier work"}, "[4]": {"conditions": "human, in vivo; cited from earlier work"}, "[5]": {"assay": "Side effects of nicotine delivered to the intestine versus gum and patch", "type": "in vivo, human", "conditions": "absorbed through the intestinal mucosa; inventors' belief"}, "[6]": {"conditions": "cited from earlier work"}, "[7]": {"assay": "Pharmacokinetics of nicotine after IV, oral and enema administration (Example 4)", "description": "Intravenous nicotine was prepared using a nicotine base, supplied as the tartrate salt (Fisher Scientific/Eastman Kodak Company, Rochester, N.Y.). Solutions for injection were made up by combining 1.5 mg nicotine base (4.44 mg tartrate salt) in 100 ml of 0.9% sterile normal saline to form a 15 mcg/mL solution. The intravenous solution was filtered through a 0.22 micron filter into a sterile container and under sterile conditions. The solution was then cultured for organisms, assayed for endotoxin, and chemically analyzed prior to infusion to assure stable nicotine concentration. These samples were then be stored in sealed vials until the time of administration.\nThe oral preparation was formed by dissolving 45 micrograms nicotine base/kg body weight (133.3 micrograms tartrate salt/kg body weight) in 30 ml purified water.\nThe sorbitol was added to make the vehicle isoosmolar and the carboxymethylcellulose was used as a suspending agent.\nThirty paid human volunteers were admitted to the pharmacokinetic study after giving informed consent to a protocol approved by the institutional review board at the Mayo Clinic, Rochester, Minn. The subjects ranged in age from 21-56 and their body weights ranged from 45 to 153 Kg. All subjects were non-smokers and were healthy based on their histories, and physical examination. Subjects agreed to practice birth control during the study period. Complete blood count, chemistry group, urinalysis and pregnancy test (women only) were obtained. Subjects were excluded if they had cardiovascular disease, peripheral vascular disease, hypertension, were nursing mothers, had laboratory evidence of pregnancy, or had hepatic or renal dysfunction.\nEach subject underwent 2 investigations (IV and non-IV) of 8 hours duration at least 1 week apart. During the IV visit, subjects were given a 15-30 minute infusion of the IV nicotine solution (15 mcg/Kg dose). […] On each study day, venous blood samples were drawn from an IV catheter into standard chemistry vacutainer tubes. Samples were obtained before nicotine administration and at the following time points (time=0 was defined as the point at which the nicotine infusion was started or the non-IV dose was administered): 5, 10, 15, 30, 60, 90 minutes, and 2, 3, 4, 5, 6, and 8 hours. Whole blood samples were centrifuged and plasma samples were then stored at -20 degrees Celsius until analysis. Plasma concentrations of nicotine were determined by gas chromatography/mass spectrometry as described by Baskin et al. (Clin. Chem., 31:76-80 (1991)).\nFor this study, the maximum plasma nicotine concentration (Cmax) and the time to reach Cmax (Tmax) were defined as the highest measured plasma concentrations and the time of the sample, respectively. The following pharmacokinetics parameters were calculated using standard equations (Gibaldi (ed.) Pharmcokinetics 2nd ed, Marcel Dekker Inc., New York 409-17 (1982)): area under the plasma nicotine concentration versus time curve (AUC), bioavailability (F), blood elimination half-life (T1/2), volume of distribution (Vdss), and blood nicotine clearance (Clb).\nThe computed bioavailability for each subject was used in an analysis of covariance to compare the five groups. Within subject (IV versus non-IV) variation was evaluated for each group of 6 subjects using a paired-T test. In addition, data was reviewed for gender variation."}, "[8]": {"system": "cutaneous inflammatory response", "conditions": "transdermal delivery system; cited from earlier work"}, "[9]": {"assay": "Side effects by questionnaire versus plasma nicotine concentration (Example 4)", "type": "in vivo, human (healthy non-smoking volunteers)", "description": "However, the threshold above which symptoms appeared varied from individual to individual with the nicotine concentration at which side effects first appeared ranging from 2.4 ng/mL to 9.9 ng/mL (although some subjects had nicotine concentrations of >11 ng/mL without symptoms)."}, "[10]": {"assay": "Pharmacokinetics of nicotine tartrate after IV and Eudragit coated delayed release oral (DRO) capsules (Example 5)", "description": "Delayed-release Eudragit™ coated oral nicotine capsules were prepared by Tillotts Pharma AG, Ziefen, Switzerland and consisted of either 3 mg or 6 mg of nicotine (8.887 mg or 17.774 mg nicotine tartrate base salt, respectively). The nicotine salt was suspended in an excipient (a saturated polyglycolized glyceride; Gelucire™ 44/14, (supplied by Gattefosse France) (190 mg or 380 mg respectively) and filled into hard gelatine capsules (size 1). The capsules were then coated with Eudragit™ L30D. Eudragit™ L30D is a polymer which dissolves at about pH 6.8 in the ileum. The size of the capsule and the thickness of the Eudragit coating are similar to those used to deliver Asacol™ (Eudragit coated mesalamine) to the terminal ileum (Schroeder et al., NEJM, 317:1625-9 (1987)).\nDelayed-release Eudragit coated oral nicotine/carbomer capsules were prepared by Tillotts Pharma. Nicotine/carbomer powder (1:50--nicotine carbomer) was coated with Eudragit™ L, S or LS. The coated powder was then formed into spherules, coated with Eudragit S and filled into hard gelatine capsules (size 1). The capsules were then coated with Eudragit™ L30D. In one example, the capsules contained 150 mg nicotine-carbomer complex, equivalent to 3 mg nicotine base.\nThe aim of this study was to determine nicotine tartrate pharmacokinetics after administration by: IV, and 3 mg and 6 mg Eudragit S coated delay release oral (DRO) capsules.\nEach subject had 2 studies [DRO and 15 μg/kg (mean 1 mg) IV] separated by >1 week with the order (IV vs DRO first) randomly assigned. After nicotine administration, blood was obtained for 12 hours and serum nicotine was determined by gas chromatography/mass spectrometry. Plasma cotinine concentrations were determined HPLC in 2 subjects (both 6 mg) over 72 hours. Pharmacokinetic parameters determined were: maximum concentration (Cmax); time to Cmax (Tmax); area under the curve (AUC); bioavailability (F); volume of distribution (Vdss); clearance (CL); and half-life (T1/2).\nDelayed-release Eudragit coated oral nicotine capsules were prepared in accordance with Example 3, Part A.\nDelayed-release Eudragit coated oral nicotine/Carbopol capsules were prepared in accordance with Example 3, Part B."}},
  "note": "Where two headings read alike, the source gives them in different places.",
  "data": [
    {"smiles": "CN1C(=O)CC[C@H]1c1cccnc1", "note": "[cotinine]", "values": [
      {"measurement": "activity relative to nicotine", "setting": "[1]", "result": "less active metabolite than nicotine"}
    ]},
    {"smiles": "CN1CCCC1c1cccnc1", "note": "(stereo not shown) [nicotine]", "values": [
      {"measurement": "rise in serum nicotine", "setting": "[2]; administration to the colon", "result": "only modest rises in serum nicotine occur"},
      {"measurement": "tolerability", "setting": "[2]; human, in vivo", "result": "side effects were few and the preparation well tolerated"},
      {"measurement": "nicotine's stability", "setting": "[2]; phosphate buffer added, final pH of 5.5", "result": "increasing nicotine's stability"},
      {"measurement": "tolerability", "setting": "[3]", "result": "well-tolerated"},
      {"measurement": "response of Alzheimer's and Parkinson's disease patients", "setting": "[4]", "result": "beneficial response"},
      {"measurement": "bioavailability, cause", "setting": "[5]", "result": "low bioavailability of nicotine absorbed through the intestinal mucosa appears to be largely due to its conversion to the major metabolite cotinine on first pass metabolism in the liver"},
      {"measurement": "effect on cardiovascular system", "setting": "[6]; in vivo", "result": "increased heart rate and blood pressure resulting in greater myocardial work and oxygen requirement and coronary vasocontriction"},
      {"measurement": "effect on platelets and blood lipids", "setting": "[6]; purported", "result": "activate platelets and to adversely affect blood lipids"},
      {"measurement": "Tmax", "setting": "[7]; human, plasma, iv, […]", "result": "18 ± 6", "unit": "min"},
      {"measurement": "AUC", "setting": "[7]; human, plasma, iv, […], IV 15 mcg/kg over 15-30 min, n = 32, mean ± SD", "result": "12 ± 5", "unit": "ng·h/mL"},
      {"measurement": "Tmax", "setting": "[7]; human, plasma, po, […]", "result": "66 ± 6", "unit": "min"},
      {"measurement": "bioavailability", "setting": "[7]; human, plasma, po, […]", "result": 19, "unit": "%"},
      {"measurement": "AUC", "setting": "[7]; human, plasma, po, […], 45 mcg nicotine base/kg, n=6, analyzed on natural log scale", "result": "9 ± 5", "unit": "ng·h/mL"},
      {"measurement": "subjects with no detectable plasma levels", "setting": "[7]; oral, 45 mcg/kg", "result": 2, "unit": "subjects"},
      {"measurement": "time at which nicotine was first detected in plasma", "setting": "[7]; oral, 45 mcg/kg, when detectable", "result": 30, "unit": "min"},
      {"measurement": "colonic absorption, dependence on patient position", "setting": "[7]; pilot study, two additional subjects, enema", "result": "higher plasma levels detected when subjects were allowed into a sitting position immediately after administration"},
      {"measurement": "cutaneous inflammatory response to sodium lauryl sulphate and UVB radiation, and reactive hyperaemia", "setting": "[8]", "result": "suppress the cutaneous inflammatory response to sodium lauryl sulphate (irritant) and UVB radiation, as well as reactive hyperaemia following arterial occlusion"},
      {"measurement": "nicotine concentration without symptoms (some subjects)", "setting": "[9]; plasma", "result": "> 11", "unit": "ng/mL"},
      {"measurement": "side effects, correlation with plasma nicotine concentrations", "setting": "[9]; questionnaire every 30 minutes", "result": "closely correlated with plasma nicotine concentrations"},
      {"measurement": "side effects observed", "setting": "[9]; variable frequency", "result": "nausea lightheadedness, and diaphoresis"},
      {"measurement": "first pass metabolism", "setting": "[10]; 6 mg DRO versus IV", "result": "significant first pass metabolism"},
      {"measurement": "systemic bioavailability", "setting": "[10]; DRO route to the ileocolon", "result": "reduced systemic bioavailability of nicotine"},
      {"measurement": "F", "setting": "[10]; IV 15 μg/kg (mean 1 mg), n=20", "result": "100 ± 0", "unit": "%"},
      {"measurement": "Tmax", "setting": "[10]; human, in vivo, iv, […]", "result": "24 ± 6", "unit": "min"},
      {"measurement": "Vd", "setting": "[10]; human, in vivo, iv, […]", "result": "2 ± 1", "unit": "L/kg"},
      {"measurement": "clearance", "setting": "[10]; human, in vivo, iv, […]", "result": 16.7, "unit": "mL/min/kg"},
      {"measurement": "half-life", "setting": "[10]; human, in vivo, iv, […]", "result": "60 ± 60", "unit": "min"}
    ]}
  ]
}
